The record followed here is patent US20210353652A1, “TUMOR MICROENVIRONMENT-ACTIVATED DRUG-BINDER CONJUGATES, AND USES RELATED THERETO” (Trustees of Tufts College, priority 2018, published 2021).

Data set [1] has as its system AML cell lines. Briefly: Pyroptosis in AML cell lines in vitro. Format: cell-based.
Data set [2] concerns humanized PD-L1 MC38 tumour cell line. Description: Humanised PD-L1 MC38 syngeneic model of colorectal cancer. The format is in vivo. The following applies: VbP 0.02 mg/mouse per os added to AVA04-251 Fc, compared to the monotherapy. As to the method:
Mice (n=8/group, C57BL/6) were inoculated subcutaneously in the right flank region with a humanized PD-L1 MC38 tumour cell line (in which the mouse PD-L1 extracellular domain was replaced by the equivalent human domain; CrownBio Inc). AVA04-251 Fc and associated control (SQTgly Fc) were injected via the IP route once tumours were >80 mm^3. Treatments were administered twice a week for 3 weeks at a dose of 10 mg/kg (AVA04-251 Fc and its control, SQTgly Fc). VbP (Tufts University) was administered 5 times a week (with 2 days off) at 0.02 mg/mouse per os. Overall, tumour growth inhibition was shown for both treatments (FIG. 17).
Seventy (70) days after the inoculation of the tumour, three (3) mice from the group treated with AVA04-251 Fc and VbP were inoculated a second time with the huMC38 cell line (a control group was inoculated at the same time) to assess if the immune system developed a memory response, preventing subsequent tumor growth.

Data set [3] deals with J774A.1 cells. Description: Pyroptosis (LDH release) in J774 mouse macrophage cell line. The following applies: 1 μM, 24 hours. Format: cell-based. On the procedure:
Affimer-linker-VbP pro-drugs are designed to be cleaved by FAPα to release VbP.
J774A.1 cells (mouse monocyte macrophages; ATCC) were grown in DMEM-10%-FBS in 75 cm^2 tissue culture flasks, harvested by scraping in PBS, resuspended in DMEM-1%-FBS, plated in 96-well plates (VWR) at a density of 5×10^3 cells per well, and placed in a 5% C02 incubator at 37° C. After incubation for 24 hours, serial 10-fold dilutions of VbP, unconjugated AVA04-182 Fc, linker-VbP pro-drugs (6325, 6326 and 6328), and Affimer-linker-VbP pro-drugs (AVA04-182 Fc-6325, −6326 and −6328) were added to wells with and without addition of rhFAPα (R&D Systems) at a final concentration of 25 nM. Each reaction mixture was tested in triplicate and incubated for a further 24 hours at 37° C. Lactate dehydrogenase (LDH; a marker of pyroptosis) released into culture supernatants, was measured using the CytoTox 96 Non-Radioactive Cytotoxicity Assay (Promega) according to the manufacturer's instructions. LDH concentrations were determined by absorbance (A490) measurements in a SpectraMax® M2^e microplate reader (Molecular Devices). Percent LDH release was calculated by subtracting the background release in wells containing DMEM-1%-FBS without cells and expressing the resulting values as percentages of the LDH released by the CytoTox 96 lysis reagent.

The nature of data set [4]: Acute toxicity study in Sprague Dawley rats. The format is in vivo, rat. The following applies: SD rats, subcutaneous. As to the method:
The comparative in vivo safety of a representative linker-VbP pro-drug administered subcutaneously at a dose equivalent to 10-fold the maximum tolerated dose (MTD) of VbP was established in Sprague Dawley (SD) rats, i.e., 10 times the dose of VbP that […] of the SD rats.
Prior to administration, MAL-activated 6323 (PEGs-linker-VbP pro-drug) was conjugated to L-cysteine in order to inactivate the MAL moiety. L-cysteine (5 mg; Sigma) was dissolved in 1 mL of MAL-activated 6323 (4.8 mM in 50 mM MES, 150 mM NaCl, pH 6) to achieve an approximate stoichiometry of 10:1 L-cysteine:6323. The resulting solution was incubated at room temperature for 2-3 hours, after which time the reaction was confirmed to have reached completion by LC-MS analysis. The resulting Cys-modified 6323 was purified by preparative RP-HPLC using a Supelco Discovery C18 column with a 2:98 acetonitrile:water (0.1% TFA) gradient over 10 minutes, and was subsequently lyophilized.
Six (6) male SD rats (Charles River) were injected subcutaneously with 1.47 mg/kg Cys-modified 6323 (equivalent to 0.25 mg VbP/kg) in sterile PBS. […] In this study, the MTD for VbP was considered to be 0.025 mg VbP/kg. At 24 hours, 5 of the 6 animals administered Cys-modified 6323 at a dose equivalent to 10-times the VbP MTD survived, indicating a safety margin for the VbP pro-drug relative VbP.

In data set [5] the test system is MV4-11 AML cells. Briefly: MV4-11 AML model in NOD-SCID Il2rg-/- mice. Format: in vivo, mouse. Conditions: intraperitoneal once a day, 5 days on, 2 days off. An excerpt: One million MV4-11 cells injected into the tail vein of 10-week-old female NOD-SCID Il2rg−/−mice.
Data set [6] concerns the target mouse PD-L1 Fc (R&D Systems) (mouse) (UniProt Q9EP73). Description: PD-1/PD-L1 competitive ELISA: antibody preincubated with mouse PD-L1 Fc, then loaded on plate-coated mouse PD-1 Fc; % inhibition. On the technique in general: ELISA stands for enzyme-linked immunosorbent assay.
Data set [7] concerns T cell response (BMDC co-cultured with allogenic CD4+ T cells). Description: Mouse mixed lymphocyte reaction (MLR) assay. The format is cell-based. Conditions: ELISA of supernatant after 3 days of culture, in comparison to isotype control or SQTGly Fc. On the procedure:
A mouse mixed lymphocyte reaction (MLR) assay was performed to assess the ability of AVA04-182 Fc to modulate the T cell response. In this MLR assay, BMDC (bone marrow dendritic cells) were generated from the bone marrow of one (1) C57BL/6 mouse, cultured for seven (7) days in the presence of GM-CSF. Cells were then co-cultured with allogenic CD4+ T cells isolated from the spleen of a Balb/c mouse using negative selection. The MLR assay was performed in the presence or absence of the test products (AVA04-182 Fc, SQTgly Fc [SEQ ID NO: 120; Affimer Fc fusion without PD-L1 targeting], Avelumab and its isotype control, HuIgG1) and controls (anti-mouse PD-L1 clone 10F9.G2 and its isotype control, rat IgG2b). Test products were evaluated at three concentrations (700, 70 and 7 nM) and the controls at one concentration (70 nM). After 3 days of culture, cell culture supernatant was harvested and the secretion of interferon γ (IFNγ) and interleukin-2 (IL-2) was evaluated using ELISA. The anti-mouse PD-L1 and Avelumab induced an increase in IL-2 (data not shown) and IFNγ secretion, in comparison to their isotype controls (FIG. 4). Similarly, AVA04-182 Fc treatment led to an increase in IL-2 (data not shown) and IFNγ secretion at all concentrations tested, in comparison to SQTGly Fc (FIG. 4).

Data set [8] concerns the target T1, human PD-L1 Fc (R&D Systems) chimeric protein (human, UniProt Q9NZQ7 19-239).
T1 construct: Bought reagent; also called human PD-L1 Fe; not shown: Fc part of the bought R&D Systems chimera
Briefly: binding ELISA on plate-coated human PD-L1 Fc, detection with biotinylated anti-cystatin A and streptavidin-HRP; the table gives no unit, nM is the x axis of the curve.

T1 sequence (Q9NZQ7 19-239, change not shown): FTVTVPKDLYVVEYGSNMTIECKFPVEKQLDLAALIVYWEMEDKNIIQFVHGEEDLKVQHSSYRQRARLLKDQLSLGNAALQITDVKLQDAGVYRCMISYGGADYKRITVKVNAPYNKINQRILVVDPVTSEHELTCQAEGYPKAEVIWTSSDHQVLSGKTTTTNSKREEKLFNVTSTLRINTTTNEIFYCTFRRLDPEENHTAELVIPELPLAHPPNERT
mouse PD-L1 Fc (R&D Systems) (mouse), sequence (Q9EP73 19-238): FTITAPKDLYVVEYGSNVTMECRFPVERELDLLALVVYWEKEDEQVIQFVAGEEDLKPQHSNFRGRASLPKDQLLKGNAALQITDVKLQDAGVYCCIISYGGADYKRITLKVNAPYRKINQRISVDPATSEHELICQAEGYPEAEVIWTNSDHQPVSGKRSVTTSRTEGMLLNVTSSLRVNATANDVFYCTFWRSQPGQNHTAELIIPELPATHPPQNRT

For `CC(C)[C@H](N)C(=O)N1CCC[C@H]1B(O)O` [VbP, Val-boroPro], the Induction of pyroptosis result in data set [1] is recorded as “induces pyroptosis”. For the same molecule, in data set [2], the “Escape of tumour growth at Day 13” value is reported as “none of the mice showed escape of tumour growth”. The “LDH release in the presence of rhFAPα” value in data set [3] (25 nM rhFAPα) is on record as “significant LDH release”. Moreover, in data set [3] (no rhFAPα), the “LDH release in the absence of rhFAPα” value is “significant LDH release”. The molecule further came in with an MTD in data set [4] of 0.025 mg VbP/kg. Besides, the “Efficacy against MV4-11 AML cells in vivo” value in data set [5] is reported as “demonstrates efficacy”.
As usually defined, the IC50 is the concentration that gives 50% inhibition. A lower IC50 goes with higher potency. Anti muPD-L1 (10F9.G2) (antibody) yielded an IC50 in data set [6] of 0.692 nM.
Avelumab: anti-PD-L1 antibody: in data set [7], the IFNγ secretion result was “increase”. In data set [7] (data not shown), the IL-2 secretion entry was “increase”.

B1: AVA04-251 BH cys-800 (designed binder)
chain: MIPRGLSEAKPATPEIQEIVDKVKPQLEEKTNETYGKLEAVQYKTQVLAREGRQDWVLSTNYYIKVRAGDNKYMHLKVFNGPWVPFPHQQLADRVLTGYQVDKNKDDELTGFAEAAAKEAAAKEAAAKEAAAKEAAAKEAAAKMIPRGLSEAKPATPEIQEIVDKVKPQLEEKTNETYGKLEAVQYKTQVLAREGRQDWVLSTNYYIKVRAGDNKYMHLKVFNGPWVPFPHQQLADRVLTGYQVDKNKDDELTGFLQAAAHHHHHHC
modifications: IRDye 800CW conjugated with maleimide chemistry (to the single Cys residue)
notes: Dye conjugate of m3; also called conjugated Affimer
In general, EC50 refers to the concentration at which the effect is half-maximal. A higher EC50 goes with a need for much substance. On to B1, for which, in data set [8], the EC50 was found to be 0.0904 nM.

B2: AVA04-251 BH cys (designed binder)
chain: B1 chain
notes: Produced in E. coli BL21; also called parental molecule
Take B2: the EC50 in data set [8] was determined as 0.0355 nM.
